Measurements as given in patent US5792457A, “Antibody recognizing endothelial cell ligand for leukocyte CR3” (priority 1995, dated 1998).

Experiments:
CSF leukocytosis = assay: Rat meningitis model (LOS): CSF leukocytosis; assay type: in vivo, female Wistar rats; conditions: 600 nmol i.v., 4 hours after LOS
Method: The experiments were performed according to established protocols (Wispelway et al., 1988, J. Clin. Invest., 82: 1339-1346). Purified Haemophilus influenzae type b strain DL42 lipooligosaccharide (LOS) was prepared for inoculation by sonication for 30 minutes, dilution to the desired concentration (20 ng/50 μl) in normal saline or PBS, and sonication for an additional 15 to 30 minutes just prior to use.
(§1) Briefly, anesthetized female Wistar rats were placed under a micromanipulator and inoculated intracisternally with a 25 gauge needle. After removal of 50 μl of CSF (without visible blood contamination), rats were inoculated intracisternally with 50 μl (20 ng) of LOS using a 1 ml syringe with a 25 gauge needle. Ten to fifteen minutes after inoculation with LOS, the rats were treated by intravenous administration of the test substance: a solution of an FHA peptide in PBS, a solution of a control peptide in PBS, or an equal volume of PBS alone.
(§2) Three hours after LOS inoculation, 5 μCi of ^125 I-radiolabelled albumin in 50 μl normal saline was administered intravenously. One hour later, CSF was collected via intracisternal puncture and blood samples were collected via intracardiac puncture. CSF leukocytosis was determined by manually counting white blood cells using a hemacytometer, and blood-brain barrier permeability was determined as the percent of radioactivity in whole blood that was present in the CSF. Blood samples were obtained immediately prior to inoculation, immediately prior to treatment, and at 4 hours post-inoculation for determination of peripheral white blood cell concentrations.

[1] = tested on: peripheral white blood cells; assay: Rat meningitis model: peripheral white blood cell concentrations; assay type: in vivo, female Wistar rats; conditions: following i.v. administration
Method: as §2

[2] = Stability of FHA II peptide in 50% rabbit plasma; assay type: in vitro ADME; conditions: 37° C.
Method: To determine the stability of the FHA II peptide, the unmodified or the acetylated-amidated peptide were incubated in 50% rabbit plasma at 37° C.

[3] = tested on: Factor Xa procoagulant activity on THP-1 cells; assay: Generation of Factor Xa by monocytes (THP-1), clotting assay; assay type: cell-based; conditions: for Factor Xa / Clotting time: peptides 0.5 mM; for Clotting time: mean ± SD of at least 3 experiments
Method: Factor Xa generation was determined by a modification of the method of Miletich et al. (1978), J. Biol. Chem. 253: 6908-6916. THP-1 cells (ATCC; […]) resuspended in RPMI 1640 (Bio Whittaker, Walkersville,Md.) were incubated with 100 μM ADP (Sigma), 2.5 mM CaC2, 1 or 5 μg/ml Factor X (Hematologic Technologies Inc.) and 0.5 mM peptides at room temperature. After 20 minutes, 100 μl of the reaction mixture was transferred to 37° C. and supplemented with 100 μl of bovine factor VII- and Factor X-deficient plasma (Sigma). Coagulation was initiated by adding 100 μl of 25 mM CaC2 and the clotting time was determined. Factor Xa procoagulant activity (ng/ml) was calculated by means of a standard curve constructed by serial concentrations of Factor Xa (Hematologic Technologies Inc.) from 50 to 250 ng/ml.

[4] = tested on: 125I-Factor X binding to human neutrophils (CD11b/CD18); assay: Inhibition of 125I-Factor X binding to neutrophils; assay type: cell-based; conditions: for inhibition of 125I-Factor X binding to neutrophils: peptides 0.5 mM, native FHA 0.3 μM
Method: FIG. 15 is a bar graph representation of the inhibition of ^125 I-Factor X binding to neutrophils by FHA, FHA- or Factor X-peptides as identified in Table 6. The concentration of inhibiting substances was: peptides 0.5 mM, native FHA 0.3 μM. Values represent the mean±standard deviation of triplicate experiments.
FIG. 16 is a graphical representation of the FHA, FHA- or Factor X-peptide concentration effect on the inhibition of ^125 I-Factor X binding to neutrophils. FHA peptide II (Square) and Factor X peptide II (Circle) at 10^-2 to 5×10^2 μM; FHA at 10^-6 to […] (triangle). Values are representative of triplicate experiments (standard deviations <15%).
Human Factor X (Sigma or Hematologic Technologies Inc.) was labeled with ^125 I using Iodogen (Pierce Chemical Co.) Human neutrophils were isolated from heparinized blood according to the manufacturer's specification using Neutrophil Isolation Medium (Cardinal Associates, Santa Fe, N. Mex.) and washed three times with 5 mM EDTA-phosphate-buffered saline (PBS), pH 7.2, at 4° C. To eliminate platelet contamination, neutrophils were incubated with autologous serum containing 5 mM EDTA for 30 mins. at 37° C., washed three times with ice-cold PBS, pH 7.2, and resuspended in RPMI 1640 tissue culture medium (Whittaker M.A. Bioproducts, Walkersville, Md.) at 4° C. Binding of ^125 I-Factor X to neutrophils was measured based on a method described by Altieri et al. (1991) Science 254: 1200-1202. Briefly, 200 μl of neutrophils (1.5×10^7 /ml) were supplemented with 17.5 μl of 50 mM CaCl2, stimulated with 3.5 μl of 100 μM NH2 -formyl-Met-Leu-Phe (Sigma), and mixed with 30 μl of 10.3 μg/ml ^125 I-Factor X and 100 μl of 1.75 mM of peptide. Buffer alone and a peptide of scrambled sequence served as controls in each of the 3 experiments. After incubation for 20 mins. at room temperature, neutrophil-bound ^125 I-Factor X was separated from unbound ^125 I-Factor X by centrifugation of 300 μl aliquots through 50 μl of a mixture of Hi phenyl silicone oil DC 550 and methyl silicone oil DC 200 5:1 (Nye Inc. Specialty Lubricants, New Bedford, Mass.) at 12,000×g for 2 mins. Aliquots of the supernatant (cell free ^125 I-Factor X) and the cell pellet (cell bound ^125 I-Factor X) were counted in a gamma-counter. Nonspecific binding (~50,000 cpm) was determined by adding a 100 fold excess of unlabeled Factor X, and subtracted from total radioactivity (~500,000 cpm for controls).

Factor X binding to CR3 = conditions: cited from earlier work
[5] = tested on: blood-brain barrier permeability; assay: Rat meningitis model (LOS): blood-brain barrier permeability (125I-albumin); assay type: in vivo, female Wistar rats; conditions: for BBB permeability: percent of radioactivity in whole blood present in CSF
Method: as §1, §2

cerebral infarct = assay: Rat transient middle cerebral artery occlusion (MCAO): infarct volume; assay type: in vivo, male Wistar rats; conditions: 50 nmol i.v. at reperfusion then 150 nmol i.p.; 2 hour MCAo, 2 day survival
[6] = tested on: leukocyte migration into the CSF; assay: Anti-inflammatory activity in rabbits with meningitis (FIG. 5, FIG. 6); assay type: in vivo, rabbit; conditions: intravenous
Excerpt: This inhibitory activity implies that antibodies to FHA which bind to any of the three Factor X regions would disturb leukocyte recruitment. This is to be distinguished from anti-FHA antibodies that bind to endothelia by recognizing an integrin receptor which is an endothelial cell component (see below). […] This is shown in FIG. 6 where various doses of antibody were given to rabbits and the number of leukocytes recruited into the cerebrospinal fluid in response to pneumonoccal meningitis was determined.

[7] = ciliary extracts; cited from earlier work

## Ac-ETKEVDG-NH2 [Acetyl/Amide-FHA II]
CSF leukocytosis
  Leukocytosis (CSF): approximately 10,000 cells/ml
CSF leukocytosis; listed as ac/am FHA II
  Leukocytosis (CSF): 10,500 ± 8523 cells/ml
[1]
  neutropenia: No neutropenia was observed
[2]; 48 hours
  stability in plasma (in words): remained unchanged over 48 hours

## DEETVK [scrambled FHA II, reference compound]
[3]
  Factor Xa: 165.0 ng/mL
  Clotting time: 23.1 ± 1.0 s
[3]; control FHA II peptide
  Factor Xa: 165 ng/mL

## ETKEVDG [FHA II]
[2]
  time in which concentration decreased by half: 4 to 6 h
[3]
  effect on Factor Xa generation (in words): did not interfere with the generation of Factor Xa procoagulant activity
  Factor Xa: 86.0 ng/mL
  Clotting time: 30.0 ± 5.0 s
[4]
  IC50: 10 µM
  inhibition of 125I-Factor X binding to neutrophils: 87±8%

## GYDTKQEDG [Factor X II]
[3]; 0.5 mM, vs scrambled FHA II, 20 min
  reduction of Factor Xa production: > 90%
[3]
  Factor Xa: < 10 ng/mL
  Clotting time: 55.2 ± 4.0 s
Factor X binding to CR3
  inhibition of binding of CR3 bearing cells to Factor X (in words): competitively inhibit the binding of CR3 bearing tissue culture cells to purified Factor X
[4]
  IC50: 500 µM

## LGYQAK (UniProt P12255 1979-1984, looked up, fragment) [FHA Ia]
[3]
  Factor Xa: 57.4 ng/mL
  Clotting time: 34.1 ± 1.1 s

## RGDPHQGVLAQGDIIMDAKG [FHA Ca]
[1]
  neutropenia: No neutropenia was observed
[5]; 50 nmol
  BBB permeability: 5.8 ± 2.7%
[5]; 100 nmol
  BBB permeability: 3.0 ± 2.2%
[5]; rat, in vivo
  Inhibition of blood-brain barrier permeability (in words): appeared to be dose dependent
Cerebral infarct
  volume of the infarct: approximately 25 % of the hemisphere

## native FHA: Filamentous hemagglutinin, 220kD surface associated protein of Bordetella pertussis (List Biologicals)
[6]
  antiinflammatory activity in meningitis (in words): antiinflammatory activity in the sense of inhibiting leukocyte migration into the CSF
[7]
  binding to lactosylceramide (in words): binds to lactosylceramide
[4]
  IC50: 0.1 µM
  inhibition of 125I-Factor X binding to neutrophils: 70±4%
